In experiment [1] the test system is Mus musculus. Nature of the experiment: Antihyperglycemic effect in STZ-diabetic ddY mouse assessed as reduction in blood glucose level at 150 umol/kg, ip after 4 to 6 hrs by glucose oxidase method. The class given is functional, organism-based.
Experiment [2] has as its system Mus musculus. Description: Antihyperglycemic effect in STZ-diabetic ddY mouse assessed as reduction in blood glucose level at 150 umol/kg, ip after 4 hrs by glucose oxidase method. It counts as functional, organism-based.
For experiment [3], the system named is Mus musculus. Nature of the experiment: Antihyperglycemic effect in STZ-diabetic ddY mouse assessed as reduction in blood glucose level at 30 umol/kg, ip after 6 hrs by glucose oxidase method. It counts as functional.
The subject of experiment [4] is Pancreas. Description: Potentiation of 8.3 mM glucose-induced immunoreactive insulin release in perfused Wistar rat pancreas at 1 mM by radioimmunoassay. It counts as functional, tissue-based.
The subject of experiment [5] is Mus musculus. Nature of the experiment: Antihyperglycemic effect on STZ-diabetic ddY mouse assessed as increase in plasma insulin level at 300 umol/kg, ip after 2 hrs by ELISA. The class given is functional. (In general: An ELISA detects its analyte on a solid surface through an enzyme-linked reagent.)
Experiment [6] concerns Pancreas. Nature of the experiment: Potentiation of 8.3 mM glucose-induced immunoreactive insulin release in perfused Wistar rat pancreas by radioimmunoassay. The class given is functional, tissue-based.
Experiment [7] concerns Mus musculus. Description: Antihyperglycemic effect on STZ-diabetic ddY mouse assessed as increase in plasma insulin level at 300 umol/kg, ip after 30 mins by ELISA. It counts as functional.
Experiment [8] deals with Mus musculus. Nature of the experiment: Antihyperglycemic effect in STZ-diabetic ddY mouse assessed as reduction in blood glucose level at 150 umol/kg, ip after 2 hrs by glucose oxidase method. The class given is functional, organism-based. The conditions noted are these: TDE = time-dependent effect.
The species named for experiment [9] is Mus musculus. Nature of the experiment: Antihyperglycemic effect on STZ-diabetic ddY mouse assessed as reduction in blood glucose level by glucose oxidase method. The class given is functional, organism-based.

Structures are written as SMILES. Calls of active or inactive are those of the source. The rule behind the calls is not given here.

Take `O[C@H]1[C@H](O)[C@@H](O)CN2CC[C@H](O)[C@H]12`: the result in the experiment with Mus musculus [1] was Active.
In the case of `OC[C@H]1N[C@H](CO)[C@@H](O)[C@@H]1O`, in the experiment on Mus musculus [2], the result was Active.
For the compound `COc1ccc(Cl)cc1C(=O)NCCc1ccc(S(=O)(=O)NC(=O)NC2CCCCC2)cc1` [GLYBURIDE], in the experiment with Mus musculus [3], the Activity was found to be 138 mg/dL.
With `OC[C@H]1NCC[C@@H](O)[C@@H]1O` [FAGOMINE], the outcome with Pancreas [4] was Active. The Activity with Mus musculus [5] was 560 pg/mL; with Pancreas [6] it was “Dose-dependent effect”; in the experiment with Mus musculus [7], 454 pg/mL; in the experiment on Mus musculus [8], “tde”.
`OC[C@H]1NCC[C@@H](O)[C@@H]1O[C@@H]1O[C@H](CO)[C@@H](O)[C@H](O)[C@H]1O`: the Activity entry in the experiment filed under Mus musculus [9] is “Dose-dependent effect”.

Values taken from ChEMBL document CHEMBL1141738, “Antihyperglycemic effects of N-containing sugars from Xanthocercis zambesiaca, Morus bombycis, Aglaonema treubii, and Castanospermum australe in streptozotocin-diabetic mice” (1998).
